{
  "source": "patent US20240252668A1",
  "about": "“ANTIBODY DRUG CONJUGATES AND METHODS FOR MAKING THEREOF” (Novartis AG, priority 2021, published 2024)",
  "key": {"[1]": {"tested_on": "MP41 uveal melanoma cell line (heterozygous GNA11 Q209L)", "assay": "Cell proliferation assay (resazurin cell viability), MP41 cell line", "assay_type": "cell-based", "method_in_brief": "(§1)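 Cells seeded the night before, then treated 96 h at 37 °C in RPMI/10% FCS (A375 in DMEM/10% FCS); compounds 260 nM to 0.036 nM in ⅓ dilution steps, one compound 10000 nM to 1.52 nM. Viability read by resazurin addition after 96 h.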"}, "[2]": {"tested_on": "SK-MEL-30 skin melanoma cell line (heterozygous NRAS Q61K)", "assay": "Cell proliferation assay (resazurin cell viability), SK-MEL-30 cell line", "assay_type": "cell-based", "settings": "Homo sapiens", "method_in_brief": "as §1"}, "[3]": {"assay": "EPSA determination by supercritical fluid chromatography", "assay_type": "physicochemical", "settings": "supercritical fluid chromatography, Chirex 3014 column; modified EPSA method, SFC; read-out: EPSA", "method_in_brief": "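SFC on a Chirex 3014 column ([…], 3×100 mm, 100 Å). Gradient runs linearly from 5% to 60% methanol containing 20 mM ammonium formate, in scCO2, over 4.5 min.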"}, "[4]": {"assay": "Plasma incubation of compound (A1), cynomolgus monkey plasma", "assay_type": "in vitro ADME", "method": "Plasma incubations and sample preparation: Compound (A1) was spiked at 5.00 μg/mL in PBS and pooled mixed gender mouse (CD-1), cynomolgus monkey and human plasma. Samples were incubated on a Thermomixer (Eppendorf) at 37° C. while shaking at 650 rpm. Aliquots of 50 μL (n=3) were drawn from each incubation tube following 0, 0.5, 1, 2, 4, 8 and 24 h of incubation. 50 μL of sample was quenched with 200 μL of acetonitrile, containing both generic internal standards, glybenclamide and warfarin, at 62.5 ng/mL. Samples were briefly vortexed and centrifuged for 20 min at 4000 rpm and 4° C. 200 μL of the supernatant was transferred into a clean 800 μL 96-well sample collection plate.\nQuantification by LC-MS/MS: LC-MS/MS analysis was conducted with a Shimadzu Nexera UPLC coupled to AB Sciex QTRAP 6500 using the SRM acquisition mode (3 μL injected). Samples were analyzed using a ACE 3° C.18-PFP (3 μM, 2.1×50 mm column) at a column temperature of 65° C. […] Quantification of compound (A1) and 5 was performed by MS-MRM (electrospray in positive mode, ion spray voltage: 5000 V, source temperature: 500° C., curtain gas: 25 psig, nebulizer gas: 60 psig, turbo ion spray gas: 40 psig, mass range: low, resolution Q1/Q3: unit, collision gas: medium, dwell time: 12 msec). […] Peak integration and quantification was conducted with the AB Sciex Analyst software (v.1.7) using the Analyst Classic algorithm."}, "[5]": {"tested_on": "Gαq-mutant uveal melanoma xenografts", "settings": "systemically administered; cited from earlier work"}},
  "note": "Like-named read-outs stand apart in the source and are kept apart here. Starred links: 1 amine or outer side, 2 acyl side, 3 side chain; linkers in the order of their positions; H or OH if unused. Positions of bridges follow the written chain, without caps; N, C: chain ends. Non-standard residues stand in square brackets, D forms with d. Residues, ends and D or L forms follow the SMILES beside them. *: point of attachment. Leu(3R-OH,Nα-propionyl) = CCC(=O)N[C@H](C(=O)*)[C@H](O)C(C)C; X1 = CC(C)[C@@H](O[*:3])[C@H](N[*:1])C(=O)[*:2]; NMeT = CN[C@H](C(=O)O)[C@@H](C)O; dPhLac = O=C(O)[C@H](O)Cc1ccccc1; NMeA = CN[C@@H](C)C(=O)O; NMeDha = C=C(NC)C(=O)O",
  "data": [
    {"smiles": "C=C1C(=O)N[C@@H](C)C(=O)N(C)[C@@H](C)C(=O)N[C@@H]([C@H](OC(=O)[C@@H](NC(=O)CC)[C@H](O)C(C)C)C(C)C)C(=O)N(C)[C@@H]([C@@H](C)OC)C(=O)O[C@H](C(C)C)[C@H](NC(C)=O)C(=O)O[C@H](Cc2ccccc2)C(=O)N1C", "note": "[Compound (A1), FR900359] (Ac-[X1][dPhLac][NMeDha]A[NMeA][X1](Leu(3R-OH,Nα-propionyl))[NMeT](Me); ester 1-C)", "values": [
      {"measurement": "GI50", "setting": "[1]; MP41 (GNA11 Q209L), 96 hours of treatment, read-out: GI50 by cell line, MP41", "value": 200, "unit": "pM"},
      {"measurement": "GI50", "setting": "[1]; MP41 cell line, average of Rep. 1 and 2, read-out: GI50 MP41 Average", "value": 200, "unit": "pM"},
      {"measurement": "GI50", "setting": "[1]; MP41 cell line, replicate 1, read-out: GI50 MP41 Rep. 1", "value": 220, "unit": "pM"},
      {"measurement": "GI50", "setting": "[1]; MP41 cell line, replicate 2, read-out: GI50 MP41 Rep. 2", "value": 270, "unit": "pM"},
      {"measurement": "GI50", "setting": "[2]; SK-MEL-30 (GNAQ/11 wild type), 96 hours of treatment, read-out: GI50 by cell line, SK-MEL-30", "value": "> 260000", "unit": "pM"},
      {"measurement": "GI50", "setting": "[2]; SK-MEL-30 cell line, average of Rep. 1 and 2, read-out: GI50 SK-MEL-30 Average", "value": "> 260000", "unit": "pM"},
      {"measurement": "GI50", "setting": "[2]; SK-MEL-30 cell line, replicate 1, read-out: GI50 SK-MEL-30 Rep. 1", "value": "> 260000", "unit": "pM"},
      {"measurement": "GI50", "setting": "[2]; SK-MEL-30 cell line, replicate 2, read-out: GI50 SK-MEL-30 Rep. 2", "value": "> 260000", "unit": "pM"},
      {"measurement": "EPSA", "setting": "[3]", "value": 94, "unit": "A^2"},
      {"measurement": "plasma stability / metabolite formation compared with human plasma", "setting": "[4]", "value": "Very similar results"},
      {"measurement": "tolerability of the active doses", "setting": "[5]", "value": "well tolerated"}
    ]}
  ]
}
